From patent US8815565B2, “Method for culturing mycoplasma contamination-free cells and method for removing mycoplasma contamination of cells” (Cellsafe Co., Ltd., priority 2010, dated 2014) come the findings set out here.

*1 amine or outer side, *2 acyl side, *3 side chain or, on linkers, in order; H or OH if unused. Where a SMILES comes first, the peptide text is derived from it. Bridges are numbered along the chain shown (N, C = ends). [ ]: non-standard residue; d: D form. X1 = CC(C)CCCCCCCCC[C@H](CC(=O)[*:1])O[*:2]

Assay [1] deals with Mycoplasma hyorhinis (ATCC17981s). Put plainly: Inhibition of Mycoplasma hyorhinis cultured in PPLO medium, INT colour change. The assay is classed as cell-based. To be noted: final concentration at which INT colour change did not occur, 24 hours + 4 hours at 37° C.; for IC50: Mycoplasma, read-out: IC50. Here is the method: In order to evaluate the effects of the extract and amphidinol derivatives prepared in Example 1 on mycoplasma, Mycoplasma hyorhinis (ATCC17981s) was cultured in a PPLO medium (pleuropneumonia-like organism basal medium, Difco Laboratories, Detroit, USA) supplemented with a fetal calf serum and a yeast extract, according to the method disclosed by Hayflick (Hayflick, 1965, Tex. Rep. Bio. Med. 23, 285-303). That is, 100 μl of the medium was placed on each well of a 96-well plate, and a sample (that is, the extract and amphidinol derivatives prepared in Example 1) was added to each well, such that each sample was diluted from 2 times (i.e., 2× diluted) to 12 times (i.e., 12× diluted), the starting concentration being 1 mg/ml. Mycoplasma was cultured in a PPLO medium (pleuropneumonia-like organism basal medium, Difco Laboratories, Detroit, USA) supplemented with a fetal calf serum and a yeast extract, at a temperature of 37° C. for 48 hours. The resulting culture medium was diluted with the PPLO medium at a ratio of 1:10. 100 μl of the diluted culture medium was added to each well of the 96-well plate, so that the total amount of each well was 200 μl. After culturing at a temperature of 37° C. for 24 hours, 40 μl of 0.2 mg/ml INT (p-iodonitrotetrazolium) was added thereto and culturing was further performed for 4 hours. If the medium turns pink following the culturing, the color change means that metabolism of mycoplasma actively occurs. Also, if mycoplasma is suppressed by the sample, the medium turned pink less.

For assay [2], the system named is HepG2 cell line contaminated with mycoplasma. Put plainly: Co-treatment with amphidinol 3 (AM3) and cyclic lipopeptide/antibiotic, PCR with mycoplasma diagnosis kit. The assay is classed as cell-based. Here is the method:
The cell lines NIH3T3, HepG2, and Raw 264.7, which were confirmed to be contaminated with mycoplasma, were each inoculated at a concentration of 1×10^6 cells on a T-75 culture flask (NUNC, Cat. No. 156367). DMEM (GIBCO BRL, Cat. No. 12800-058) containing 10% or less of serum (GIBCO BRL, Cat. […] After culturing for 3 days, the obtained cells were treated with Trypsin-EDTA to obtain a cell solution. The resulting cells (1×10^6 cells) which was treated with amphidinol 3 (AM3) were inoculated. DMEM (GIBCO BRL, Cat. No. 12800-058) containing 10% or less of serum (GIBCO BRL, Cat. […] After culturing for 3 days, the cells were harvested. PCR was performed thereon with a mycoplasma diagnosis kit (Promokine, Germany; Cellsafe Co., Ltd., Korea) according to the enclosed protocol. The resulting PCR products were electrophoresed on a 1% agarose gel to measure the mycoplasma contamination.

What is called IC50 is the concentration needed to halve the response being measured.

Take `C=C/C=C/CC/C=C/C=C/C=C/CC/C=C/C(O)C(O)C1OC(C(O)C(O)C(=C)CCC(O)C2CC(O)C(O)C(C(O)C(O)/C=C(\C)CCC(O)CC(O)C(O)C(C)C(O)CCCC(O)CCCC(O)CCCC(O)/C=C/CC(O)/C=C/CC(O)CO)O2)CC(O)C1O` (stereo not drawn) [AM9, amphidinol 9]: the IC50 in assay [1] fell in the range of 1 to 20 µg/mL.

`C=CCC/C=C/C=C/C=C/CC/C=C/C(O)C(O)C1OC(C(O)C(O)C(=C)CCC(O)C2CC(O)C(O)C(C(O)C(O)/C=C(\C)CCC(O)CC(O)C(O)C(C)CC(O)C(O)CCCC(O)CCCC(O)CCCC(O)/C=C/CC(O)/C=C/CC(O)CO)O2)CC(O)C1O` (stereo not drawn) [AM6, amphidinol 6]: in assay [1], the “minimum inhibitory concentration (no INT colour change)” value was “+++ (+++: 1~20 μg/ml)”.

Take `CC(C)CCCCCCCCC[C@@H]1CC(=O)N[C@@H](CCC(=O)O)C(=O)N[C@@H](CC(C)C)C(=O)N[C@H](CC(C)C)C(=O)N[C@@H](C(C)C)C(=O)N[C@@H](CC(=O)O)C(=O)N[C@H](CC(C)C)C(=O)N[C@@H](CC(C)C)C(=O)O1` [surfactin] (EL[dL]VD[dL]L; linker N-C via X1): the mycoplasma contamination result is listed as “mycoplasma contamination remained” in assay [2] (used alone, surfactin 10 or 20 μM, ciprofloxacin 1 or 5 μg/ml, rifampicin 0.5 or 1 μg/ml); “completely removed” in assay [2] (used together with amphidinol 3 (AM3) 5 and 10 μg/ml).

Turning to `C=CCC/C=C/C=C/C=C/CC/C=C/C(O)C(O)C1OC(C(O)C(O)C(=C)CCC(O)C2CC(O)C(O)C(C(O)C(O)/C=C(\C)CCC(O)CC(O)C(O)C(C)CC(O)C(O)CCCC(O)CCCC(O)/C=C/CC(O)/C=C/CC(O)CO)O2)CC(O)C1O` (stereo not drawn) [AM10], the IC50 in assay [1] is 10 to 100 µg/mL.

As for amphidinol 5 [AM5], in assay [1], the “minimum inhibitory concentration (no INT colour change)” value was “+++ (+++: 1~20 μg/ml)”.

Regarding amphidinol 7 [AM7], the “minimum inhibitory concentration (no INT colour change)” value in assay [1] is listed as “+++ (+++: 1~20 μg/ml)”.

amphidinol 2 [AM2]: the “minimum inhibitory concentration (no INT colour change)” value in assay [1] is recorded as “+++ (+++: 1~20 μg/ml)”.

For the compound `C=C/C=C/CC/C=C/C=C/C=C/CC/C=C/C(O)C(O)C1OC(C(O)C(O)C(=C)CCC(O)C2CC(O)C(O)C(C(O)C(O)/C=C(\C)CCC(O)CC(O)C(O)C(C)CC(O)C(O)C(C)CCC(O)CCCC(O)CCCC(O)CCCC(O)/C=C/CC(CO)OS(=O)(=O)[O-])O2)CC(O)C1O.[Na+]` (stereo not drawn) [AM1, amphidinol 1], the IC50 in assay [1] is 1 to 20 µg/mL.
